From article PMC7313459, “Insights into the Mn^2+ Binding Site in the Agmatinase-Like Protein (ALP): A Critical Enzyme for the Regulation of Agmatine Levels in Mammals” (International Journal of Molecular Sciences, 2020)

Target: T1, central-ALP (Rattus norvegicus, UniProt A0A8I6ASI2)
T1 construct: gene Limch1
Assay: urea formation, colorimetric (alpha-isonitrosopropiophenone, […] nm)
Assay type: biochemical
Conditions: 5 mM MnCl2, 50 mM glycine-NaOH pH 9.0, 37 °C; not pre-heated

T1 sequence (A0A8I6ASI2 141-351): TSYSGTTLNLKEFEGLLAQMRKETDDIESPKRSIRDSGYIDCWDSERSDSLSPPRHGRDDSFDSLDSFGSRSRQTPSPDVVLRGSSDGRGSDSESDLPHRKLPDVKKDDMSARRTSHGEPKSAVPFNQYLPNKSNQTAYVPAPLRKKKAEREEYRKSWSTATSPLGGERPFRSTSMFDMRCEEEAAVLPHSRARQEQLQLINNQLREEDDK

Km: 1200 ± 370 µM
SMILES: N=C(N)NCCCCN [agmatine, 1-amino-4-guanidinobutane]
